The subject of data set [1] is graft versus host reaction. The experiment in a line: Graft versus host (GVH) reaction, spleen weight (Tables 20, 21). In kind it is in vivo, mice (C57BL donors, F1 hybrid C57BL×C3H recipients). The procedure: In this determination, […] (C57BL) mouse spleen cells are injected into mice of an F1 hybrid strain (C57BL×C3H). […] The injected cells, however, mount a reaction to the recipient's tissues due to the foreign C3H-derived antigens. As a consequence, the recipient's spleen becomes enlarged. Immunosuppressive therapy prevents or reduces this enlargement. Thus, spleen weights provide a measure of the GVH reaction and its reduction under immunosuppression.
Treated and GVH control animals receive an intraperitoneal injection of 1.2×10^9 splenic lymphocytes from the C57 donors. Spleens are weighed ten days later. Spleen weights derived from groups of recipient mice receiving genetically homologous, i.e., syngeneic cells (C57BL×C3H) provide normal control values for calculating percent inhibition in drug-treated groups. For example, mice given 13 daily topical doses of 1-(4,5,6,7-tetra-hydro-2-benzothiazolyl)-3-phenyl urea show a 62% reduction in GVH reaction relative to controls, as set forth in Table 20.
Using this procedure, three compounds from the above useful in the processes of this invention have been compared with several reference immunosuppressive drugs. Treatment levels defining the 50 percent inhibitory dose have been determined.

The test system of data set [2] is antibody to sheep red blood cells. As to the kind of experiment: 75 percent reduction of control antibody titer in mice by subcutaneous, percutaneous and oral routes (Table 16). Format: in vivo, male Swiss mice. The following applies: Mus musculus, Erythrocyte, × 10 daily doses commencing 3 days before antigen i.v. The procedure:
Subcutaneous, percutaneous, and oral activity have been achieved as indicated in Table 16 which follows employing representative compounds from the above entitled application. […] Except as indicated, the tests were performed using groups of five 20-gram male Swiss mice injected with 5×10^7 sheep red blood cells intravenously for each drug level. Ten (daily) administrations of drug were made commencing three days prior to red blood cell injection. On the day following the final treatment (7 days after red blood cell injection) the animals were bled by cardiac puncture, the sera from each five-mouse-group were pooled, and antibody titers of these serum pools and corresponding serum pools from control (untreated) mouse groups were determined. The results are expressed as the minimum drug dose effecting 75 percent reduction of control antibody titer: […]

Data set [3] has as its system Salmonella typhimurium G46 missense histidine-auxotroph. As to the kind of experiment: Host mediated assay (in vivo mutagenicity), G46 indicator (Table 22). Details: species or system Salmonella typhimurium in Cox white Swiss male mice. Conditions: high levels. The procedure:
Cox white Swiss male mice 25-30 grams were used in all in vivo tests.
A. Drug Administration: Appropriate solvents were used where applicable with a solvent control run within each test. […] The organisms were grown to stationary phase, then diluted with normal saline to give an inoculum near 1×10^8 organisms per milliliter. The abdominal area of the drug-treated mouse was swabbed with alcohol and two milliliters of bacterial culture were injected into the abdominal cavity of the mouse. The mice were returned to their cages for 3-4 hours.
C. Autopsy and Recovery: The mice were sacrificed individually by cervical dislocation prior to each autopsy. The abdominal areas were soaked with ethanol. The peritoneum was bared and 2.5 ml. of sterile normal saline was injected into the peritoneal cavity using a sterile (3-ml. plastic syringe with a 20-gauge needle. After insertion, the needle is turned bevel up and the saline was expelled into the cavity; while the needle remains through the peritoneum, keeping the point of the needle in sight pressed against the peritoneal wall, the abdomen of the mouse was massaged to mix contents. The saline wash was removed from the abdominal cavity back into the syringe. The needle was removed and the contents expelled into an appropriately marked tube and iced 4° C.
D. Dilution and Plating: One-ml. samples were plated at 10° dilution on all mice to determine revertants (histidine+).
A one-milliliter sample from the untreated dilutions from control animals is plated 10^-6, 10^-7, and 10^-8 dilutions with excess histidine to determine mutable population (histidine-).

A further data set relates to neoplasms in NZBxW mice. The following applies: Casey, New Zealand Medical Journal 74,290 (1973); control 0 percent; cited from earlier work.

Read-outs that look alike come from different tables or passages of the source.

Take `Cn1cnc([N+](=O)[O-])c1Sc1ncnc2nc[nH]c12` [Azathioprine, reference compound]: the “Percent GVH Inhibition” value is listed as 43% in data set [1] (5 mg/kg × 13, s.c.) and 61% in data set [1] (10 mg/kg × 13, s.c.). The minimal effective dose is 50 to 100 mg/kg in data set [2] (sc, subcutaneous, read-out: Lowest Dose Producing 75% Immunosuppression, Subcutaneous); 50 mg/kg in data set [2] (oral, read-out: Lowest Dose Producing 75% Immunosuppression, Oral); 100 mg/kg in data set [2] (percutaneous, read-out: Lowest Dose Producing 75% Immunosuppression, Percutaneous). Moreover, in data set [3], the “mutagenic potential in the host-mediated system” value is recorded as “POSSIBLE MUTAGENIC POTENTIAL”. In the data set with neoplasms in NZBxW mice, the increase in neoplasms is given as 58%.

Values taken from patent US4153709A, “N-Heterocyclic ureas as immune regulants” (Eli Lilly and Company, priority 1977, dated 1979).
